Source: patent publication US6913760B2, “Drug delivery composition” (New England Medical Hospitals, Inc., priority 2001, dated 2005)
Where “and” joins values, the source holds several entries; their conditions need not be identical. Equal values may be shown once. Marks after values point to notes of the source that are not given here.

What was measured:
[1] = test system: rats with sciatic nerve ligation; assay: Paw withdrawal threshold after sciatic nerve ligation, rods placed parallel to the nerve; format: in vivo, Sprague-Dawley rats
rats [2] = assay: Paw withdrawal test after intrathecal implantation of PLGA rods; format: in vivo; conditions: for % MPE, paw withdrawal test, Average: average of 6 rats
[3] = rat
[4] = In vitro release of BP or HM from PLGA 50:50 rods; format: physicochemical; conditions: BP rods of first batch
rats [5] = assay: Anesthesia after intrathecal polymeric implants, all sites tested (Example 2); format: in vivo; conditions: intrathecal rods
rats [6] = assay: Tail flick test after intrathecal implantation of PLGA rods; format: in vivo; conditions: for % MPE, tail flick test, Average: average of 6 rats
[7] = Drug release studies of PLGA 85:15 rods (Example 2); format: physicochemical
[8] = trapezoidal method, individual rats, listed as BP
[9] = trapezoidal method, mean of 6 rats

- release from rods retrieved after termination of in vivo test [3]: suppressed release
- relative rate of drug release [7]: released faster than the other two drugs
- release order [7]: almost zero order
Compound: CCCCN1CCCCC1C(=O)Nc1c(C)cccc1C (stereo not shown) [Bupivacaine, bupivacaine]
- analgesia, paw withdrawal threshold (difference score) ([1]; dose doubled (4 rods/rat)): possible to achieve the analgesic effect
- analgesia, paw withdrawal threshold (difference score) ([1]; first part, single dose (2 rods/rat)): insufficient to provide analgesia
- % MPE, paw withdrawal test, Average (rats [2]; 2h, L): 26.10 % MPE
- % MPE, paw withdrawal test, Average (rats [2]; 2h, R): 27.87 % MPE
- % MPE, paw withdrawal test (rats [2]; 2h, left (L) hind paw, individual rats): 24.92 % MPE and 36.09 % MPE and 19.26 % MPE and 23.67 % MPE and 15.95 % MPE and 36.73 % MPE
- % MPE, paw withdrawal test (rats [2]; 2h, right (R) hind paw, individual rats): 19.06 % MPE and 39.35 % MPE and 20.77 % MPE and 27 % MPE and 22.43 % MPE and 38.63 % MPE
- % MPE, paw withdrawal test, Average (rats [2]; 4h, L): 26.48 % MPE
- % MPE, paw withdrawal test (rats [2]; 4h, L, individual rats): 27.69 % MPE and 55.64 % MPE and 11.48 % MPE and 14.67 % MPE and 37.74 % MPE and 11.64 % MPE
- % MPE, paw withdrawal test, Average (rats [2]; 4h, R): 29.68 % MPE
- % MPE, paw withdrawal test (rats [2]; 4h, R, individual rats): 38.12 % MPE and 58.84 % MPE and 13.08 % MPE and 12 % MPE and 44.11 % MPE and 11.91 % MPE
- % MPE, paw withdrawal test, Average (rats [2]; D1, L): 23.61 % MPE
- % MPE, paw withdrawal test (rats [2]; D1, L, individual rats): 33.85 % MPE and 35.71 % MPE and 11.11 % MPE and 39 % MPE and 13.62 % MPE and 8.36 % MPE
- % MPE, paw withdrawal test, Average (rats [2]; D1, R): 22.68 % MPE
- % MPE, paw withdrawal test (rats [2]; D1, R, individual rats): 30.62 % MPE and 43.32 % MPE and 11.54 % MPE and 32 % MPE and 11.03 % MPE and 7.58 % MPE
- % MPE, paw withdrawal test, Average (rats [2]; D2, L): 26.91 % MPE
- % MPE, paw withdrawal test (rats [2]; D2, L, individual rats): 28.92 % MPE and 42.86 % MPE and 18.15 % MPE and 29 % MPE and 33.07 % MPE and 9.45 % MPE
- % MPE, paw withdrawal test, Average (rats [2]; D2, R): 27.13 % MPE
- % MPE, paw withdrawal test (rats [2]; D2, R, individual rats): 28.12 % MPE and 44.76 % MPE and 15.77 % MPE and 28.33 % MPE and 34.60 % MPE and 11.19 % MPE
- % MPE, paw withdrawal test, Average (rats [2]; D3, L): 15.06 % MPE
- % MPE, paw withdrawal test (rats [2]; D3, L, individual rats): 20.37 % MPE and 7.33 % MPE and 9.73 % MPE and 5.09 % MPE and 16.62 % MPE and 31.20 % MPE
- % MPE, paw withdrawal test, Average (rats [2]; D3, R): 15.70 % MPE
- % MPE, paw withdrawal test (rats [2]; D3, R, individual rats): 17.31 % MPE and 4.67 % MPE and 12.55 % MPE and 0.36 % MPE and 24.69 % MPE and 34.66 % MPE
- % MPE, paw withdrawal test, Average (rats [2]; D4, L): 9.72 % MPE
- % MPE, paw withdrawal test (rats [2]; D4, L, individual rats): 7.78 % MPE and 13.67 % MPE and 1.55 % MPE and 0 % MPE and 25.54 % MPE and 9.77 % MPE
- % MPE, paw withdrawal test, Average (rats [2]; D4, R): 9.56 % MPE
- % MPE, paw withdrawal test (rats [2]; D4, R, individual rats): 8.46 % MPE and 15.67 % MPE and 0.76 % MPE and 1.08 % MPE and 20.94 % MPE and 10.47 % MPE
- % MPE, paw withdrawal test, Average (rats [2]; D5, L): 6.49 % MPE
- % MPE, paw withdrawal test (rats [2]; D5, L, individual rats): 0.74 % MPE and 1 % MPE and 1.94 % MPE and 1.45 % MPE and 18.77 % MPE and 15.04 % MPE
- % MPE, paw withdrawal test, Average (rats [2]; D5, R): 6.55 % MPE
- % MPE, paw withdrawal test (rats [2]; D5, R, individual rats): 0.38 % MPE and 3 % MPE and 2.66 % MPE and 1.44 % MPE and 18.44 % MPE and 13.36 % MPE
- % MPE, paw withdrawal test, Average (rats [2]; D6, L): 4.88 % MPE
- % MPE, paw withdrawal test (rats [2]; D6, L, individual rats): 0.37 % MPE and 7 % MPE and 0.39 % MPE and −1.82 % MPE and 10.15 % MPE and 13.16 % MPE
- % MPE, paw withdrawal test, Average (rats [2]; D6, R): 7.35 % MPE
- % MPE, paw withdrawal test (rats [2]; D6, R, individual rats): 0.77 % MPE and 11 % MPE and 4.94 % MPE and 2.89 % MPE and 9.69 % MPE and 14.80 % MPE
- Area under the curve (AUC), paw withdrawal test (left side) (rats [2]; [8]): 165.34 and 63.50 and 98.08 and 77.02 and 29.59 and 139.80
- Area under the curve (AUC), paw withdrawal test (right side) (rats [2]; [8]): 179.14 and 59.77 and 93.21 and 84.38 and 29.51 and 143.50
- Area under the curve (AUC), paw withdrawal test (left side), Mean (rats [2]; [9]): 95.55 * #
- Area under the curve (AUC), paw withdrawal test (right side), Mean (rats [2]; [9]): 98.25 * #
- in vitro release behavior [4]: zero order release pattern with two different rates
- duration of anesthesia/analgesia (rats [5]): at least 4 days
- % MPE, tail flick test, Average (rats [6]; 2h): 40.52 % MPE
- % MPE, tail flick test (rats [6]; 2h after intrathecal implantation of PLGA rod, individual rats): 31.19 % MPE and 41.43 % MPE and 63.08 % MPE and 30.89 % MPE and 23.85 % MPE and 52.69 % MPE
- % MPE, tail flick test, Average (rats [6]; 4h): 39.06 % MPE
- % MPE, tail flick test (rats [6]; 4h, individual rats): 24.2268 % MPE and 38.87 % MPE and 40.26 % MPE and 44.7644 % MPE and 11.79 % MPE and 74.46 % MPE
- Area under the curve (AUC), tail flick test (rats [6]; % MPE versus time in days, trapezoidal method, individual rats, listed as BP): 130.77 and 82.59 and 112.23 and 137.33 and 90.32 and 72.88
- Area under the curve (AUC), tail flick test, Mean (rats [6]; % MPE versus time in days, trapezoidal method, mean of 6 rats): 104.35 * #
- % MPE, tail flick test, Average (rats [6]; D1): 23.1672 % MPE
- % MPE, tail flick test (rats [6]; D1, individual rats): 14.95 % MPE and 27.11 % MPE and 31.79 % MPE and 25.65 % MPE and 11.54 % MPE and 27.96 % MPE
- % MPE, tail flick test, Average (rats [6]; D2): 22.55 % MPE
- % MPE, tail flick test (rats [6]; D2, individual rats): 13.4 % MPE and 32.23 % MPE and 40.51 % MPE and 16.49 % MPE and 13.33 % MPE and 19.35 % MPE
- % MPE, tail flick test, Average (rats [6]; D3): 19.97 % MPE
- % MPE, tail flick test (rats [6]; D3, individual rats): 14.95 % MPE and 22.51 % MPE and 26.92 % MPE and 13.87 % MPE and 18.46 % MPE and 23.12 % MPE
- % MPE, tail flick test, Average (rats [6]; D4): 10.7 % MPE
- % MPE, tail flick test (rats [6]; D4, individual rats): 14.43 % MPE and 14.0665 % MPE and 7.949 % MPE and 5.236 % MPE and 12.5641 % MPE and 9.946 % MPE
- % MPE, tail flick test, Average (rats [6]; D5): 8.394 % MPE
- % MPE, tail flick test (rats [6]; D5, individual rats): 9.536 % MPE and 4.092 % MPE and 7.692 % MPE and 5.236 % MPE and 7.949 % MPE and 15.86 % MPE
- % MPE, tail flick test, Average (rats [6]; D6): 5.511 % MPE
- % MPE, tail flick test (rats [6]; D6, individual rats): 8.247 % MPE and 0.7673 % MPE and 7.949 % MPE and 8.115 % MPE and 7.179 % MPE and 0.8065 % MPE
